Reference: BindingDB's records for doi:10.1016/j.bmcl.2005.08.106 (Astrazeneca, 2005)

Assay: Inhibition of Src-transfected 3T3 cell proliferation

| IC50 | Structure (SMILES) |
| --- | --- |
| 0.07 µM | COc1cnc(Cl)c(Nc2ncnc3cc(OCCN4CCN(C(C)=O)CC4)cc(OC(C)C)c23)n1 [1-(4-(2-(4-(3-chloro-6-methoxypyrazin-2-ylamino)-5-isopropoxyquinazolin-7-yloxy)ethyl)piperazin-1-yl)ethanone] |
| 0.06 µM | COc1ccc(Cl)c(Nc2ncnc3cc(OCCN4CCN(C(C)=O)CC4)cc(OC(C)C)c23)n1 [1-(4-(2-(4-(3-chloro-6-methoxypyridin-2-ylamino)-5-isopropoxyquinazolin-7-yloxy)ethyl)piperazin-1-yl)ethanone] |
| 0.02 µM | COc1ccc(Cl)c(Nc2ncnc3cc(OCCCN4CCN(C(C)=O)CC4)cc(OC(C)C)c23)n1 [1-(4-(3-(4-(3-chloro-6-methoxypyridin-2-ylamino)-5-isopropoxyquinazolin-7-yloxy)propyl)piperazin-1-yl)ethanone] |
| 0.15 µM | COc1ccc(Cl)c(Nc2ncnc3cc(OCCCN4CCOCC4)cc(OC(C)C)c23)c1 [N-(2-chloro-5-methoxyphenyl)-7-[3-(morpholin-4-yl)propoxy]-5-(propan-2-yloxy)quinazolin-4-amine] |
| 0.15 µM | COc1cnc(Cl)c(Nc2ncnc3cc(OCCCN4CCOCC4)cc(OC(C)C)c23)c1 [N-(2-chloro-5-methoxypyridin-3-yl)-5-isopropoxy-7-(3-morpholinopropoxy)quinazolin-4-amine] |
| 0.14 µM | COc1cnc(Cl)c(Nc2ncnc3cc(OCCCN4CCOCC4)cc(OC4CCOCC4)c23)c1 [N-(2-chloro-5-methoxypyridin-3-yl)-7-(3-morpholinopropoxy)-5-(tetrahydro-2H-pyran-4-yloxy)quinazolin-4-amine] |
| 0.12 µM | COc1ccc(Cl)c(Nc2ncnc3cc(OCCN4CCCC4)cc(OC(C)C)c23)n1 [N-(3-chloro-6-methoxypyridin-2-yl)-5-isopropoxy-7-(2-(pyrrolidin-1-yl)ethoxy)quinazolin-4-amine] |
| 0.12 µM | COc1ccc(Cl)c(Nc2ncnc3cc(OCCN4CCOCC4)cc(OC(C)C)c23)n1 [N-(3-chloro-6-methoxypyridin-2-yl)-5-isopropoxy-7-(2-morpholinoethoxy)quinazolin-4-amine] |
| 0.06 µM | COc1ccc(Cl)c(Nc2ncnc3cc(OCCCN4CCN(C)CC4)cc(OC(C)C)c23)n1 [N-(3-chloro-6-methoxypyridin-2-yl)-5-isopropoxy-7-(3-(4-methylpiperazin-1-yl)propoxy)quinazolin-4-amine] |
| 0.07 µM | COc1ccc(Cl)c(Nc2ncnc3cc(OCCCN4CCCC4)cc(OC(C)C)c23)n1 [N-(3-chloro-6-methoxypyridin-2-yl)-5-isopropoxy-7-(3-(pyrrolidin-1-yl)propoxy)quinazolin-4-amine] |
| 0.03 µM | COc1ccc(Cl)c(Nc2ncnc3cc(OCCCN4CCOCC4)cc(OC(C)C)c23)n1 [N-(3-chloro-6-methoxypyridin-2-yl)-5-isopropoxy-7-(3-morpholinopropoxy)quinazolin-4-amine] |
| 0.07 µM | COc1ccc(Cl)c(Nc2ncnc3cc(OCCCN4CCOCC4)cc(OC4CCOCC4)c23)n1 [N-(3-chloro-6-methoxypyridin-2-yl)-7-(3-morpholinopropoxy)-5-(tetrahydro-2H-pyran-4-yloxy)quinazolin-4-amine] |
| 0.35 µM | COc1cc(Nc2ncnc3cc(OCCCN4CCOCC4)cc(OC(C)C)c23)c(Cl)cn1 [N-(5-chloro-2-methoxypyridin-4-yl)-5-isopropoxy-7-(3-morpholinopropoxy)quinazolin-4-amine] |
